Source: ChEMBL document CHEMBL3864146, “5-Alkyloxytryptamines are membrane-targeting, broad-spectrum antibiotics” (Bioorg Med Chem Lett, 2016)
Values after ≈ are worked out from the molar mass of the structure shown.

Columns and labels:
[1] = test system: Escherichia coli; assay: Adjuvant activity assessed as potentiation of rifampicin-induced antibacterial activity against Escherichia coli BW25113 at 0.25 times MIC after 16 to 18 hrs by checkerboard assay (reference value: 8 ng/ml); type: functional
[2] = Cytotoxicity against HEK cells assessed as cell viability at 0.65 ug/ml after 48 hrs by CellTiter-Glo assay relative to control; type: toxicity, cell-based, HEK293; details: human, read-out: Activity
[3] = test system: Morganella morganii; assay: Antibacterial activity against Morganella morganii after 16 to 18 hrs by micro-dilution method; type: functional
[4] = test system: Pseudomonas aeruginosa; assay: Antibacterial activity against Pseudomonas aeruginosa after 16 to 18 hrs by micro-dilution method; type: functional
[5] = Cytotoxicity against HEK cells assessed as cell viability at 2.6 ug/ml after 48 hrs by CellTiter-Glo assay relative to control; type: toxicity, cell-based, HEK293; details: human, read-out: Activity
[6] = test system: Escherichia coli; assay: Adjuvant activity assessed as potentiation of chloramphenicol-induced antibacterial activity against Escherichia coli BW25113 at 0.5 times MIC after 16 to 18 hrs by checkerboard assay (reference value: 8 ng/ml); type: functional
[7] = test system: Escherichia coli; assay: Adjuvant activity assessed as potentiation of tetracycline-induced antibacterial activity against Escherichia coli BW25113 at 0.25 times MIC after 16 to 18 hrs by checkerboard assay (reference value: 2 ng/ml); type: functional
[8] = Cytotoxicity against HEK cells assessed as cell viability at 1.3 ug/ml after 48 hrs by CellTiter-Glo assay relative to control; type: toxicity, cell-based, HEK293; details: human, read-out: Activity
[9] = Cytotoxicity against HEK cells assessed as cell viability at 0.65 ug/ml after 24 hrs by CellTiter-Glo assay relative to control; type: toxicity, cell-based, HEK293; details: human, read-out: Activity
[10] = test system: Klebsiella pneumoniae; assay: Antibacterial activity against Klebsiella pneumoniae after 16 to 18 hrs by micro-dilution method; type: functional
[11] = test system: Escherichia coli; assay: Adjuvant activity assessed as potentiation of ciprofloxacin-induced antibacterial activity against Escherichia coli BW25113 at 0.5 times MIC after 16 to 18 hrs by checkerboard assay (reference value: 13 ng/ml); type: functional
[12] = test system: Staphylococcus aureus; assay: Antibacterial activity against Staphylococcus aureus after 16 to 18 hrs by micro-dilution method; type: functional
[13] = Cytotoxicity against HEK cells assessed as cell viability at 2.6 ug/ml after 24 hrs by CellTiter-Glo assay relative to control; type: toxicity, cell-based, HEK293; details: human, read-out: Activity
[14] = test system: Edwardsiella tarda; assay: Antibacterial activity against Edwardsiella tarda after 16 to 18 hrs by micro-dilution method; type: functional
[15] = test system: Vibrio cholerae; assay: Antibacterial activity against Vibrio cholerae after 16 to 18 hrs by micro-dilution method; type: functional
[16] = test system: Klebsiella aerogenes; assay: Antibacterial activity against Enterobacter aerogenes after 16 to 18 hrs by micro-dilution method; type: functional
[17] = test system: Escherichia coli; assay: Antibacterial activity against tolC-deficient Escherichia coli BW25113 after 16 to 18 hrs by micro-dilution method; type: functional
[18] = Cytotoxicity against HEK cells assessed as cell viability at 1.3 ug/ml after 24 hrs by CellTiter-Glo assay relative to control; type: toxicity, cell-based, HEK293; details: human, read-out: Activity
[19] = test system: Escherichia coli; assay: Adjuvant activity assessed as potentiation of ciprofloxacin-induced antibacterial activity against Escherichia coli BW25113 at 0.25 times MIC after 16 to 18 hrs by checkerboard assay (reference value: 13 ng/ml); type: functional
[20] = test system: Salmonella typhimurium; assay: Antibacterial activity against Salmonella typhimurium after 16 to 18 hrs by micro-dilution method; type: functional, Salmonella enterica subsp. enterica serovar Typhimurium; details: Salmonella enterica
[21] = test system: Escherichia coli; assay: Adjuvant activity assessed as potentiation of chloramphenicol-induced antibacterial activity against Escherichia coli BW25113 at 0.25 times MIC after 16 to 18 hrs by checkerboard assay (reference value: 8 ng/ml); type: functional
[22] = test system: Bacillus subtilis; assay: Antibacterial activity against Bacillus subtilis 168 after 16 to 18 hrs by micro-dilution method; type: functional; details: subsp. subtilis str. 168
[23] = test system: Acinetobacter baumannii; assay: Antibacterial activity against Acinetobacter baumannii after 16 to 18 hrs by micro-dilution method; type: functional
[24] = test system: Shigella boydii; assay: Antibacterial activity against Shigella boydii after 16 to 18 hrs by micro-dilution method; type: functional
[25] = test system: Escherichia coli; assay: Adjuvant activity assessed as potentiation of rifampicin-induced antibacterial activity against Escherichia coli BW25113 at 0.5 times MIC after 16 to 18 hrs by checkerboard assay (reference value: 8 ng/ml); type: functional
[26] = test system: Escherichia coli; assay: Adjuvant activity assessed as potentiation of tetracycline-induced antibacterial activity against Escherichia coli BW25113 at 0.5 times MIC after 16 to 18 hrs by checkerboard assay (reference value: 2 ng/ml); type: functional
[27] = test system: Escherichia coli; assay: Antibacterial activity against Escherichia coli BW25113 after 16 to 18 hrs by micro-dilution method; type: functional
[28] = Cytotoxicity against HEK cells assessed as cell viability at 3.5 ug/ml after 48 hrs by CellTiter-Glo assay relative to control; type: toxicity, cell-based, HEK293; details: human, read-out: Activity
[29] = Cytotoxicity against HEK cells assessed as cell viability at 3.5 ug/ml after 24 hrs by CellTiter-Glo assay relative to control; type: toxicity, cell-based, HEK293; details: human, read-out: Activity
[30] = Cytotoxicity against HEK cells assessed as cell viability at 14 ug/ml after 24 hrs by CellTiter-Glo assay relative to control; type: toxicity, cell-based, HEK293; details: human, read-out: Activity
[31] = Cytotoxicity against HEK cells assessed as cell viability at 14 ug/ml after 48 hrs by CellTiter-Glo assay relative to control; type: toxicity, cell-based, HEK293; details: human, read-out: Activity
[32] = Cytotoxicity against HEK cells assessed as cell viability at 6.9 ug/ml after 24 hrs by CellTiter-Glo assay relative to control; type: toxicity, cell-based, HEK293; details: human, read-out: Activity
[33] = test system: Escherichia coli; assay: Induction of membrane permeabilization in Escherichia coli BW25113 at MIC after 15 mins by propidium iodide staining-based fluorescence microplate reader method relative to 50% ethanol; type: functional
[34] = Cytotoxicity against HEK cells assessed as cell viability at 6.9 ug/ml after 48 hrs by CellTiter-Glo assay relative to control; type: toxicity, cell-based, HEK293; details: human, read-out: Activity
[35] = test system: Acinetobacter baumannii; assay: Adjuvant activity assessed as potentiation of tetracycline-induced antibacterial activity against Acinetobacter baumannii at 3.2 ug/ml after 16 to 18 hrs by checkerboard assay (reference value: 1 ug/ml); type: functional
[36] = Cytotoxicity against HEK cells assessed as cell viability at 3.2 ug/ml after 24 hrs by CellTiter-Glo assay relative to control; type: toxicity, cell-based, HEK293; details: human, read-out: Activity
[37] = test system: Pseudomonas aeruginosa; assay: Adjuvant activity assessed as potentiation of tetracycline-induced antibacterial activity against Pseudomonas aeruginosa at 3.2 ug/ml after 16 to 18 hrs by checkerboard assay (reference value: 32 ug/ml); type: functional
[38] = Cytotoxicity against HEK cells assessed as cell viability at 1.6 ug/ml after 24 hrs by CellTiter-Glo assay relative to control; type: toxicity, cell-based, HEK293; details: human, read-out: Activity
[39] = Cytotoxicity against HEK cells assessed as cell viability at 3.2 ug/ml after 48 hrs by CellTiter-Glo assay relative to control; type: toxicity, cell-based, HEK293; details: human, read-out: Activity
[40] = test system: Staphylococcus aureus; assay: Adjuvant activity assessed as potentiation of tetracycline-induced antibacterial activity against Staphylococcus aureus at 1.6 ug/ml after 16 to 18 hrs by checkerboard assay (reference value: 0.125 ug/ml); type: functional
[41] = Cytotoxicity against HEK cells assessed as cell viability at 0.8 ug/ml after 24 hrs by CellTiter-Glo assay relative to control; type: toxicity, cell-based, HEK293; details: human, read-out: Activity
[42] = test system: Klebsiella pneumoniae; assay: Adjuvant activity assessed as potentiation of tetracycline-induced antibacterial activity against Klebsiella pneumoniae at 3.2 ug/ml after 16 to 18 hrs by checkerboard assay (reference value: 2 ug/ml); type: functional
[43] = test system: Salmonella typhimurium; assay: Adjuvant activity assessed as potentiation of tetracycline-induced antibacterial activity against Salmonella typhimurium at 3.2 ug/ml after 16 to 18 hrs by checkerboard assay (reference value: 1 ug/ml); type: functional, Salmonella enterica subsp. enterica serovar Typhimurium; details: Salmonella enterica
[44] = Cytotoxicity against HEK cells assessed as cell viability at 0.8 ug/ml after 48 hrs by CellTiter-Glo assay relative to control; type: toxicity, cell-based, HEK293; details: human, read-out: Activity
[45] = Cytotoxicity against HEK cells assessed as cell viability at 1.6 ug/ml after 48 hrs by CellTiter-Glo assay relative to control; type: toxicity, cell-based, HEK293; details: human, read-out: Activity

| Structure (SMILES) | MIC [1] | MIC [3] | MIC [4] | MIC [6] | MIC [7] | MIC [10] | MIC [11] | MIC [12] | MIC [14] | MIC [15] | MIC [16] | MIC [17] | MIC [19] | MIC [20] | MIC [21] | MIC [22] | MIC [23] | MIC [24] | MIC [25] | MIC [26] | further results |
| --- | --- | --- | --- | --- | --- | --- | --- | --- | --- | --- | --- | --- | --- | --- | --- | --- | --- | --- | --- | --- | --- |
| CCCCCCCCCOc1cccc(CCN)c1 | 0.004 µg/mL | 11 µg/mL (≈ 41.8 µM) | 21 µg/mL (≈ 79.7 µM) | 0.004 µg/mL | 0.002 µg/mL | 5.3 µg/mL (≈ 20.1 µM) | 0.025 µg/mL | 5.3 µg/mL (≈ 20.1 µM) | 5.3 µg/mL (≈ 20.1 µM) | 5.3 µg/mL (≈ 20.1 µM) | 5.3 µg/mL (≈ 20.1 µM) | 2.6 µg/mL (≈ 9.87 µM) | 0.025 µg/mL | 5.3 µg/mL (≈ 20.1 µM) | 0.008 µg/mL | 0.66 µg/mL (≈ 2.51 µM) | 5.3 µg/mL (≈ 20.1 µM) | 5.3 µg/mL (≈ 20.1 µM) | 0.002 µg/mL | 0.001 µg/mL | viability at 48 h, 0.65 ug/ml [2]: 58.1%; viability at 48 h, 2.6 ug/ml [5]: 1.8%; viability at 48 h, 1.3 ug/ml [8]: 31%; viability at 24 h, 0.65 ug/ml [9]: 72.7%; viability at 24 h, 2.6 ug/ml [13]: 3.4%; viability at 24 h, 1.3 ug/ml [18]: 60.5%; MIC [27]: 5.3 µg/mL (≈ 20.1 µM) |
| CCCCCCCCCCCCOc1ccc2[nH]cc(CCN)c2c1.Cl | 0.001 µg/mL | > 110 µg/mL | > 110 µg/mL | 0.0005 µg/mL | 0.001 µg/mL | > 110 µg/mL | 0.0008 µg/mL | 3.4 µg/mL | > 110 µg/mL | 28 µg/mL | > 110 µg/mL | 6.9 µg/mL | 0.013 µg/mL | 28 µg/mL | 0.001 µg/mL | 1.7 µg/mL | 28 µg/mL | 14 µg/mL | 0.00025 µg/mL | 0.00025 µg/mL | viability at 48 h, 3.5 ug/ml [28]: 13.4%; viability at 24 h, 3.5 ug/ml [29]: 26%; viability at 24 h, 14 ug/ml [30]: 1.5%; viability at 48 h, 14 ug/ml [31]: 0.2%; viability at 24 h, 6.9 ug/ml [32]: 10.4%; Activity [33]: 10%; viability at 48 h, 6.9 ug/ml [34]: 2.6%; MIC [27]: 26 µg/mL |
| CCCCCCCCCCOc1ccc2[nH]cc(CCN)c2c1.Cl | 0.008 µg/mL | 101 µg/mL | > 101 µg/mL | 0.002 µg/mL | 0.001 µg/mL | 6.3 µg/mL | 0.013 µg/mL | 3.2 to 6.3 µg/mL | 25 µg/mL | 6.3 µg/mL | 13 µg/mL | 3.2 µg/mL | 0.013 µg/mL | 6.3 µg/mL | 0.004 µg/mL | 1.6 µg/mL | 6.3 µg/mL | 3.2 µg/mL | 0.001 µg/mL | 0.00025 µg/mL | MIC [35]: 0.25 µg/mL; viability at 24 h, 3.2 ug/ml [36]: 13.4%; MIC [37]: 16 µg/mL; viability at 24 h, 1.6 ug/ml [38]: 29.6%; viability at 48 h, 3.2 ug/ml [39]: 2%; MIC [40]: 0.001 µg/mL; viability at 24 h, 0.8 ug/ml [41]: 59.7%; MIC [42]: 2 µg/mL; Activity [33]: 83%; MIC [43]: 0.016 µg/mL; viability at 48 h, 0.8 ug/ml [44]: 39.1%; viability at 48 h, 1.6 ug/ml [45]: 17%; MIC [27]: 6.3 µg/mL |
